In ChEMBL document CHEMBL1255295, “Convergent in vivo and in vitro selection of ceftazidime resistance mutations at position 167 of CTX-M-3 beta-lactamase in hypermutable Escherichia coli strains” (2008):
Values after ≈ are worked out from the molar mass of the structure shown.

Experiments:
[1] = tested on: Escherichia coli; assay: Antimicrobial activity against ceftazidime-resistant Escherichia coli Irk2320 harboring beta-lactamase CTX-M-42 Pro167Thr mutant gene by agar dilution method; format: functional
[2] = tested on: Escherichia coli; assay: Antimicrobial activity against Escherichia coli Irk1224 harboring beta-lactamase CTX-M-3 by agar dilution method; format: functional
[3] = tested on: Escherichia coli; assay: Antimicrobial activity against Escherichia coli EPI300 harboring pCC1 carrying beta-lactamase CTX-M-3 gene by agar dilution method; format: functional
[4] = tested on: Escherichia coli; assay: Antimicrobial activity against Escherichia coli EPI300 transformant harboring pCC1 by agar dilution method; format: functional
[5] = tested on: Escherichia coli; assay: Antimicrobial activity against Escherichia coli EPI300 harboring pCC1 carrying beta-lactamase CTX-M-42 Pro167Thr mutant gene by agar dilution method; format: functional
[6] = tested on: Escherichia coli; assay: Antimicrobial activity against Escherichia coli AB14156 harboring beta-lactamase CTX-M-42 Pro167Thr mutant gene by agar dilution method; format: functional
[7] = tested on: Escherichia coli; assay: Antimicrobial activity against ceftazidime-resistant Escherichia coli Irk2322 harboring beta-lactamase CTX-M-42 Pro167Thr mutant gene by agar dilution method; format: functional
[8] = tested on: Escherichia coli; assay: Antimicrobial activity against Escherichia coli EPI300 harboring pCC1 carrying beta-lactamase CTX-M-3 by agar dilution method in presence of beta-lactamase inhibitor clavulanic acid
[9] = tested on: Escherichia coli; assay: Antimicrobial activity against Escherichia coli EPI300 harboring plasmid pCC1 by agar dilution method in presence of beta-lactamase inhibitor clavulanic acid
[10] = tested on: Escherichia coli; assay: Antimicrobial activity against Escherichia coli EPI300 Irk1224 type 2 mutant harboring beta-lactamase CTX-M-3 Ser167 mutant gene by agar dilution method
[11] = tested on: Escherichia coli; assay: Antimicrobial activity against ceftazidime-resistant Escherichia coli Irk2320 harboring beta-lactamase CTX-M-42 Pro167Thr mutant gene by agar dilution method in presence of beta-lactamase inhibitor clavulanic acid
[12] = tested on: Escherichia coli; assay: Antimicrobial activity against Escherichia coli Irk1224 type 3 mutant harboring beta-lactamase CTX-M-3 Lys136 mutant gene by agar dilution method; format: functional
[13] = tested on: Escherichia coli; assay: Antimicrobial activity against Escherichia coli Irk1224 type 1 mutant harboring beta-lactamase CTX-M-3 by agar dilution method; format: functional
[14] = tested on: Escherichia coli; assay: Antimicrobial activity against ceftazidime-resistant Escherichia coli Irk2322 harboring beta-lactamase CTX-M-42 Pro167Thr mutant gene by agar dilution method in presence of beta-lactamase inhibitor clavulanic acid
[15] = tested on: Escherichia coli; assay: Antimicrobial activity against Escherichia coli EPI300 harboring GM2995 pCC1 carrying beta-lactamase CTX-M-3 Ser167 mutant gene by agar dilution method
[16] = tested on: Escherichia coli; assay: Antimicrobial activity against Escherichia coli Irk1224 harboring beta-lactamase CTX-M-3 by agar dilution method in presence of beta-lactamase inhibitor clavulanic acid
[17] = tested on: Escherichia coli; assay: Antimicrobial activity against Escherichia coli GM2995 harboring plasmid pCC1 carrying beta-lactamase CTX-M-3 gene by agar dilution method; format: functional
[18] = tested on: Escherichia coli; assay: Antimicrobial activity against Escherichia coli GM2995 harboring plasmid pCC1 carrying beta-lactamase CTX-M-3 from by agar dilution method; format: functional
[19] = tested on: Escherichia coli; assay: Antimicrobial activity against Escherichia coli EPI300 Irk1224 type 3 mutant harboring CTX-M-3 beta-lactamase Lys136 mutant gene by agar dilution method
[20] = tested on: Escherichia coli; assay: Antimicrobial activity against Escherichia coli AB14156 harboring beta-lactamase CTX-M-42 Pro167Thr mutant gene by agar dilution method in presence of beta-lactamase inhibitor clavulanic acid
[21] = tested on: Escherichia coli; assay: Antimicrobial activity against Escherichia coli EPI300 harboring pCC1 carrying beta-lactamase CTX-M-42 Pro167Thr mutant gene by agar dilution method in presence of beta-lactamase inhibitor clavulanic acid
[22] = tested on: Escherichia coli; assay: Antimicrobial activity against Escherichia coli GM2995 harboring plasmid pCC1 carrying beta-lactamase CTX-M-3 Ser167 mutant gene by agar dilution method
[23] = tested on: Escherichia coli; assay: Antimicrobial activity against Escherichia coli Irk1224 type 2 mutant harboring beta-lactamase CTX-M-3 Ser167 mutant gene by agar dilution method; format: functional
[24] = tested on: Escherichia coli; assay: Antimicrobial activity against Escherichia coli EPI300 Irk1224 type 1 mutant harboring beta-lactamase CTX-M-3 gene by agar dilution method; format: functional
[25] = tested on: Escherichia coli; assay: Antimicrobial activity against Escherichia coli EPI300 harboring GM2995 pCC1-1224 carrying CTX-M-3 beta-lactamase gene from by agar dilution method; format: functional
[26] = tested on: Escherichia coli; assay: Antimicrobial activity against Escherichia coli EPI300 harboring GM2995 pCC1 carrying beta-lactamase CTX-M-3 gene by agar dilution method; format: functional

Structure (SMILES) | MIC [1] | MIC [2] | MIC [3] | MIC [4] | MIC [5] | MIC [6] | MIC [7] | MIC [8] | MIC [9] | MIC [10] | MIC [11] | MIC [12] | MIC [13] | MIC [14] | MIC [15] | MIC [16] | MIC [17] | MIC [18] | MIC [19] | MIC [20] | other results
CO/N=C(\C(=O)N[C@@H]1C(=O)N2C(C(=O)O)=C(CSc3nc(=O)c(O)nn3C)CS[C@H]12)c1csc(N)n1 [CEFTRIAXONE] | 8 µg/mL (≈ 14.4 µM) | ≥ 256 µg/mL | 4 µg/mL (≈ 7.21 µM) | 0.06 µg/mL (≈ 0.108 µM) | 1 µg/mL (≈ 1.8 µM) | 8 µg/mL (≈ 14.4 µM) | 8 µg/mL (≈ 14.4 µM) |  |  |  |  |  |  |  |  |  |  |  |  |  | 
CO/N=C(\C(=O)N[C@@H]1C(=O)N2C(C(=O)O)=C(COC(C)=O)CS[C@H]12)c1csc(N)n1 [CEFOTAXIME] |  |  |  |  |  |  |  | 4 µg/mL | 4 µg/mL | 1 µg/mL (≈ 2.2 µM) | 4 µg/mL | 64 µg/mL (≈ 141 µM) | ≥ 256 µg/mL | 4 µg/mL | 1 µg/mL (≈ 2.2 µM) | 4 µg/mL | 4 µg/mL (≈ 8.78 µM) | ≥ 256 µg/mL | 1 µg/mL (≈ 2.2 µM) | 4 µg/mL | MIC [21]: 4 µg/mL; MIC [22]: 1 µg/mL (≈ 2.2 µM); MIC [23]: 64 µg/mL (≈ 141 µM)
CO/N=C(\C(=O)N[C@@H]1C(=O)N2C(C(=O)[O-])=C(C[N+]3(C)CCCC3)CS[C@H]12)c1csc(N)n1 | 1 µg/mL (≈ 2.08 µM) | 32 µg/mL (≈ 66.6 µM) | 0.5 µg/mL (≈ 1.04 µM) | 0.06 µg/mL (≈ 0.125 µM) | 0.25 µg/mL (≈ 0.52 µM) | 1 µg/mL (≈ 2.08 µM) | 1 µg/mL (≈ 2.08 µM) |  |  |  |  |  |  |  |  |  |  |  |  |  | 
CC1(C)S[C@@H]2[C@H](NC(=O)[C@H](N)c3ccc(O)cc3)C(=O)N2[C@H]1C(=O)O [AMOXICILLIN] | 16 µg/mL (≈ 43.8 µM) | 32 µg/mL (≈ 87.6 µM) | 8 µg/mL (≈ 21.9 µM) | 2 µg/mL (≈ 5.47 µM) | 8 µg/mL (≈ 21.9 µM) | 16 µg/mL (≈ 43.8 µM) | 16 µg/mL (≈ 43.8 µM) | 4 µg/mL | 1 µg/mL |  | 8 µg/mL |  |  | 8 µg/mL |  | 16 µg/mL |  |  |  | 8 µg/mL | MIC [21]: 4 µg/mL
CC(C)(O/N=C(\C(=O)N[C@@H]1C(=O)N2C(C(=O)[O-])=C(C[n+]3ccccc3)CS[C@H]12)c1csc(N)n1)C(=O)O [CEFTAZIDIME] |  |  |  | 0.25 µg/mL (≈ 0.457 µM) |  |  |  | 4 µg/mL | 4 µg/mL | 16 µg/mL (≈ 29.3 µM) | 4 µg/mL | ≥ 256 µg/mL | ≥ 256 µg/mL | 4 µg/mL | 16 µg/mL (≈ 29.3 µM) | 4 µg/mL | 1 µg/mL (≈ 1.83 µM) | 32 µg/mL (≈ 58.5 µM) | 8 µg/mL (≈ 14.6 µM) | 4 µg/mL | MIC [24]: 1 µg/mL (≈ 1.83 µM); MIC [21]: 4 µg/mL; MIC [25]: 1 µg/mL (≈ 1.83 µM); MIC [26]: 1 µg/mL (≈ 1.83 µM); MIC [22]: 32 µg/mL (≈ 58.5 µM); MIC [23]: ≥ 256 µg/mL
CC1(C)S[C@@H]2[C@H](NC(=O)[C@H](N)c3ccccc3)C(=O)N2[C@H]1C(=O)O [AMPICILLIN] | ≥ 256 µg/mL | ≥ 256 µg/mL | ≥ 256 µg/mL |  | ≥ 256 µg/mL | ≥ 256 µg/mL | ≥ 256 µg/mL |  |  | 128 µg/mL (≈ 366 µM) |  | ≥ 256 µg/mL | ≥ 256 µg/mL |  | 128 µg/mL (≈ 366 µM) |  | ≥ 256 µg/mL | ≥ 256 µg/mL | 32 µg/mL (≈ 91.6 µM) |  | MIC [24]: ≥ 256 µg/mL; MIC [25]: ≥ 256 µg/mL; MIC [26]: ≥ 256 µg/mL; MIC [22]: 128 µg/mL (≈ 366 µM); MIC [23]: ≥ 256 µg/mL
